Data on 16 compounds can be found in US20240016942A1, “STAT DEGRADERS AND USES THEREOF” (Kymera Therapeutics, Inc., priority 2020, published 2024).

This assay has as its target T1, STAT3 (Homo sapiens, UniProt P40763).
T1 construct: expressed in transfected cells; host or cells: A549
Nature of the assay: STAT3 HiBiT degradation assay (Nano-Glo HiBiT lytic detection) in transfected A549 cells. The assay is classed as cell-based. An outline of the steps:
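Transfected A549 cells (~2000/well) treated 24 h at 37° C with compound in 3-fold, 10-point dilution series. HiBiT-tagged STAT3 remaining measured by Nano-Glo HiBiT lytic luminescence, normalised to negative and positive controls; DC50 from four-parameter curve fit.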

Where [1] appears, read: 24 h compound incubation, read-out: STAT3 HiBIT A549 degradation 24 h: Average external-Abs DC50.
[2] abbreviates: read-out: STAT3 HiBIT A549 degradation 24 h: Average external-Abs DC50, 24 h compound incubation.

SMILES strings stand for the structures. Read-outs that look alike come from different tables or passages of the source. Bounds are passed on as bounds.

T1 sequence (P40763 whole entry): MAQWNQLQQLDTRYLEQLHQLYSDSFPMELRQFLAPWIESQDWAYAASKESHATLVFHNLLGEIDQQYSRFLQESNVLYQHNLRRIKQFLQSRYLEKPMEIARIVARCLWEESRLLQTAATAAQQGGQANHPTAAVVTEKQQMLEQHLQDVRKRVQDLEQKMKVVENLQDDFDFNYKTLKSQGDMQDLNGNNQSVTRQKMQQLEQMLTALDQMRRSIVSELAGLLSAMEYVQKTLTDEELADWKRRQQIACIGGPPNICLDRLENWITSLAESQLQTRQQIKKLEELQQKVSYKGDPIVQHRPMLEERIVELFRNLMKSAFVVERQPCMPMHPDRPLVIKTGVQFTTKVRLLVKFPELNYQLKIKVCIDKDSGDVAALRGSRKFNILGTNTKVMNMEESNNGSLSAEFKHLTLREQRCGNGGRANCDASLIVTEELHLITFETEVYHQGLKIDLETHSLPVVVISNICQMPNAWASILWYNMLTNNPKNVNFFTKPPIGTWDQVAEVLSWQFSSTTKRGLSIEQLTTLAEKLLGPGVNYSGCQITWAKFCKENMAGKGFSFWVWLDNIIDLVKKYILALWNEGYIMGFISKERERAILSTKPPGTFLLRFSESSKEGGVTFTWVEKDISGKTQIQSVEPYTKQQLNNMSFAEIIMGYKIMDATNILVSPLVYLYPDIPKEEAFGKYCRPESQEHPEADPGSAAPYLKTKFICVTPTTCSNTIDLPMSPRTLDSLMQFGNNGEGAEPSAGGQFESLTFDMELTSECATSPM

In the case of `Cc1ncsc1-c1ccc([C@H](C)NC(=O)[C@@H]2C[C@@H](O)CN2C(=O)[C@@H](NC(=O)CCCc2cccc(OC[C@H](CCC(N)=O)NC(=O)[C@@H]3CCCN3C(=O)[C@@H](NC(=O)c3cc4cc(C(=O)P(=O)(O)O)ccc4[nH]3)C(C)C)c2Cl)C(C)(C)C)cc1` [I-15, 2-[[(2S)-1-[(2S)-2-[[(2S)-4-carbamoyl-1-[2-chloro-3-(3-[[(2S)-1-[(2S,4R)-4-hydroxy-2-[[(1S)-1-[4-(4-methyl-1,3-thiazol-5-yl)phenyl]ethyl]carbamoyl]pyrrolidin-1-yl]-3,3-dimethyl-1-oxobutan-2-yl]carbamoyl]propyl)phenoxy]butan-2-yl]carbamoyl]pyrrolidin-1-yl]-3-methyl-1-oxobutan-2-yl]carbamoyl]-1H-indole-5-carbonylphosphonic acid], the DC50 under setting [1] lay within 0.01 to 0.1 µM. On to `CC(C)c1ccc(CNC(=O)[C@H](CCC(N)=O)NC(=O)[C@@H]2CC[C@@H]3CCN(C(=O)[C@H]4CC[C@@H](CCc5ccc6c(c5)n(C)c(=O)n6C5CCC(=O)NC5=O)CC4)C[C@H](NC(=O)c4cc5cc(C(=O)P(=O)(O)O)ccc5[nH]4)C(=O)N32)cc1Cl` (stereo partly shown) [I-33], for which the DC50 under setting [2] lay within 0.01 to 0.1 µM. On to `Cn1c(=O)n(C2CCC(=O)NC2=O)c2ccc(CCCc3cccc(OC[C@H](CCC(N)=O)NC(=O)[C@@H]4CC[C@@H]5CCCC[C@H](NC(=O)c6cc7cc(C(=O)P(=O)(O)O)ccc7[nH]6)C(=O)N54)c3Cl)cc21` (stereo partly shown) [I-27], for which the 50% degradation concentration (DC50) under setting [1] was above 1 µM.

As for `Cc1ncsc1-c1ccc(CNC(=O)[C@@H]2C[C@@H](O)CN2C(=O)[C@@H](c2cc(OCCCc3cccc(OC[C@H](CCC(N)=O)NC(=O)[C@@H]4Cc5cccc6c5N4C(=O)[C@@H](NC(=O)c4cc5cc(C(=O)P(=O)(O)O)ccc5[nH]4)CC6)c3Cl)no2)C(C)C)cc1` [I-63], under setting [1], the DC50 is below 0.01 µM. Still for that read-out and setting: the value for `Cn1c(=O)n(C2CCC(=O)NC2=O)c2ccc(CC[C@H]3CC[C@@H](C(=O)N4CC[C@H]5CC[C@@H](C(=O)N[C@@H](CCC(N)=O)c6ccccn6)N5C(=O)[C@@H](NC(=O)c5cc6cc(C(=O)P(=O)(O)O)ccc6[nH]5)C4)CC3)cc21` (stereo partly shown) [I-39] was 0.01 to 0.1 µM.

Take `Cn1c(=O)n(C2CCC(=O)NC2=O)c2ccc(CC[C@H]3CC[C@@H](C(=O)N4CC[C@H]5CC[C@@H](C(=O)N[C@@H](CCC(N)=O)C(=O)NCc6ccc(S(C)(=O)=O)cc6)N5C(=O)[C@@H](NC(=O)c5cc6cc(C(=O)P(=O)(O)O)ccc6[nH]5)C4)CC3)cc21` (stereo partly drawn) [I-68, 2-[[(5S,8S,10aR)-8-[[(1S)-3-carbamoyl-1-[[(4-methanesulfonylphenyl)methyl]carbamoyl]propyl]carbamoyl]-6-oxo-3-[(1r,4s)-4-[2-[1-(2,6-dioxopiperidin-3-yl)-3-methyl-2-oxo-1,3-benzodiazol-5-yl]ethyl]cyclohexanecarbonyl]-octahydropyrrolo[1,2-a][1,5]diazocin-5-yl]carbamoyl]-1H-indole-5-carbonylphosphonic acid]: under setting [1], the 50% degradation concentration (DC50) fell in the range of 0.01 to 0.1 µM.

With `CC(C)c1ccc(CNC(=O)[C@H](CCC(N)=O)NC(=O)[C@@H]2CC[C@@H]3CCN(C(=O)[C@H]4CC[C@@H](CCc5ccc6c(c5)n(C)c(=O)n6C5CCC(=O)NC5=O)CC4)C[C@H](NC(=O)c4cc5cc(C(=O)P(=O)(O)O)ccc5[nH]4)C(=O)N32)cc1` (stereo partly drawn) [I-59, (2-(((5S,8S,10aR)-8-(((S)-5-amino-1-((4-isopropylbenzyl)amino)-1,5-dioxopentan-2-yl)carbamoyl)-3-((1r,4R)-4-(2-(1-(2,6-dioxopiperidin-3-yl)-3-methyl-2-oxo-2,3-dihydro-1H-benzo[d]imidazol-5-yl)ethyl)cyclohexane-1-carbonyl)-6-oxodecahydropyrrolo[1,2-a][1,5]diazocin-5-yl)carbamoyl)-1H-indole-5-carbonyl)phosphonic acid], under setting [1], the half-maximal degradation concentration (DC50) is 0.01 to 0.1 µM. Consider `Cc1ncsc1-c1ccc([C@H](C)NC(=O)[C@@H]2C[C@@H](O)CN2C(=O)[C@@H](NC(=O)CCCc2cccc(OC[C@H](CCC(N)=O)NC(=O)[C@@H]3CC[C@@H]4CCN(C(=O)C(F)(F)F)C[C@H](NC(=O)c5cc6cc(C(=O)P(=O)(O)O)ccc6[nH]5)C(=O)N43)c2Cl)C(C)(C)C)cc1` [I-66], for which the DC50 under setting [1] was below 0.01 µM.

As for `CC(=O)N1CC[C@H]2CC[C@@H](C(=O)N[C@@H](CCC(N)=O)COc3cc(C)cc(CCCC(=O)N[C@H](C(=O)N4C[C@H](O)C[C@H]4C(=O)N[C@@H](C)c4ccc(-c5scnc5C)cc4)C(C)(C)C)c3Cl)N2C(=O)[C@@H](NC(=O)c2cc3cc(C(=O)P(=O)(O)O)ccc3[nH]2)C1` [I-80], under setting [1], the DC50 is below 0.01 µM. With `Cc1ncsc1-c1ccc([C@H](C)NC(=O)[C@@H]2C[C@@H](O)CN2C(=O)[C@@H](NC(=O)CCCCc2cccc(OC[C@H](CCC(N)=O)NC(=O)[C@@H]3CC[C@@H]4CCCC[C@H](NC(=O)c5cc6cc(C(=O)P(=O)(O)O)ccc6[nH]5)C(=O)N43)c2Cl)C(C)(C)C)cc1` [I-1], under setting [1], the 50% degradation concentration (DC50) is below 0.01 µM. In the case of `COC(=O)N1CC[C@H]2CC[C@@H](C(=O)N[C@@H](CCC(N)=O)COc3cccc(CCCC(=O)N[C@H](C(=O)N4C[C@H](O)C[C@H]4C(=O)N[C@@H](C)c4ccc(-c5scnc5C)cc4)C(C)(C)C)c3Cl)N2C(=O)[C@@H](NC(=O)c2cc3cc(C(=O)P(=O)(O)O)ccc3[nH]2)C1` [I-87], the 50% degradation concentration (DC50) under setting [1] is above 1 µM. For `Cn1c(=O)n(C2CCC(=O)NC2=O)c2ccc(NC[C@H]3CC[C@@H](C(=O)N4CC[C@H]5CC[C@@H](C(=O)N[C@@H](CCC(N)=O)C(=O)NCc6ccc(S(C)(=O)=O)cc6)N5C(=O)[C@@H](NC(=O)c5cc6cc(C(=O)P(=O)(O)O)ccc6[nH]5)C4)CC3)cc21` (stereo partly shown) [I-48], the half-maximal degradation concentration (DC50) under setting [1] lay in the range of 0.01 to 0.1 µM. For `C[C@H](CCC(N)=O)NC(=O)[C@@H]1CC[C@@H]2CCN(C(=O)C[C@H]3CC[C@@H](Cc4ccc5c(c4)n(C)c(=O)n5C4CCC(=O)NC4=O)CC3)C[C@H](NC(=O)c3cc4cc(C(=O)P(=O)(O)O)ccc4[nH]3)C(=O)N21` (stereo partly shown) [I-50], under setting [1], the half-maximal degradation concentration (DC50) is 0.1 to 1 µM. As to `Cc1ncsc1-c1ccc([C@H](C)NC(=O)[C@@H]2C[C@@H](O)CN2C(=O)[C@@H](NC(=O)CCCc2cccc(OC[C@H](CCC(N)=O)NC(=O)[C@@H]3CCCN3C(=O)[C@H](CO)NC(=O)c3cc4cc(C(=O)P(=O)(O)O)ccc4[nH]3)c2Cl)C(C)(C)C)cc1` [I-11], the DC50 under setting [1] fell in the range of 0.01 to 0.1 µM. Same read-out and setting: in the case of `CNC(=O)N1CC[C@H]2CC[C@@H](C(=O)N[C@@H](CCC(N)=O)COc3cccc(CCCC(=O)N[C@H](C(=O)N4C[C@H](O)C[C@H]4C(=O)N[C@@H](C)c4ccc(-c5scnc5C)cc4)C(C)(C)C)c3Cl)N2C(=O)[C@@H](NC(=O)c2cc3cc(C(F)(F)P(=O)(O)O)ccc3s2)C1` [I-98] it was above 1 µM. For the compound `CC(=O)N1CC[C@H]2CC[C@@H](C(=O)N[C@@H](CCC(N)=O)COc3cccc(CCCC(=O)N[C@H](C(=O)N4C[C@H](O)C[C@H]4C(=O)N[C@@H](C)c4ccc(-c5scnc5C)cc4)C(C)(C)C)c3Cl)N2C(=O)[C@@H](NC(=O)c2cc3cc(C(F)(F)P(=O)(O)O)ccc3s2)C1` [I-83], the half-maximal degradation concentration (DC50) under setting [2] is above 1 µM.
